# Assay results from US11807835B2, “Detergent compositions containing a stabilized enzyme by phosphonates” (ECOLAB USA INC., priority 2016, dated 2023).
# Legend:
# lipase = assay: Lipase activity retention in detergent use solution (4000 ppm, 5 GPG water; p-nitrophenyl valerate, TRIS buffer pH 8.0); type: biochemical; settings: for Relative Lipase Enzyme Activity: base formula; for Relative Lipase Enzyme Activity in a Use Solution of the All Ash Detergent Composition: Table 6F, 120º F.
# Procedure: The enzyme […] collected up to 4 hours, after a use solution was generated from the detergent composition. During the tests, the samples at different time points were collected and immediately frozen in an acetone/dry ice bath and stored in −80° C. before the activity of the enzyme was evaluated. For the use of such an assay, t=0 min was the reference point for 100% enzyme activity.
# (§1) Assays of enzyme activity in formulations (% retention) were conducted to simulate a presoak condition in a beaker using the chemistry, temperature, and pH conditions relevant to manual warewash or presoak applications. Enzyme activity is an indicator of the stability of the enzyme in the detergent, specifically in an aqueous use solution within a sump (which is under conditions of high pH, temperature and dilution).
# Enzyme activity under presoak or manual warewash conditions was traced quantitatively using a standard protease assay. Samples were prepared under bench top conditions, whereby the use solution from a detergent composition or detergent was obtained and maintained at a presoak or manual warewash temperature in a stirring water bath. After the time course for assessing enzyme stability is initiated, aliquots were taken at various time points and flash-frozen. A time=0 sample was prepared for each series by dissolving the detergent formulation at room temperature, mixing thoroughly, and flash freezing. Samples were thawed and diluted as necessary in an assay buffer usually for use in the protease assay. A glycine buffer at pH 9.0 is used here. The assay monitored the direct reaction of the protease on a small, commercially available peptidyl substrate, with liberation of the product providing correlation to the active enzyme content. The product was detected using a plate reader with an appreciable dynamic range (upper absorbance limit of the instrument >3.5). Enzyme activity levels were assessed relative to a calibration curve with average values for replicate tests used to map protease stability under presoak or manual warewash use conditions. Enzyme retention at each time point was calculated as the % enzyme activity relative to the time=0 sample.
# The analysis by lipase and amylase assay was conducted similarly, except with a different substrate and buffers. For lipase activity, the substrate is p-nitrophenyl valerate, and for amylase, the substrate is an ethylidene substrate (EPS). The buffer used in lipase assay is TRIS (Tris(hydroxymethyl)aminomethane) buffer at pH 8.0, and in amylase assay HEPES (4-(2-hydroxyethyl)-1-piperazineethanesulfonic acid) buffer at pH 8.0.
# [1] = tested on: enzyme (protease, amylase, lipase); assay: Overall effects of phosphonates on enzyme activity (Table 3); type: biochemical; settings: overall effect of the phosphonate on enzyme activity in the detergent use solution
# Procedure: The enzyme activities in the detergents with different phosphonate levels were tested at 4000 ppm in 5 grains per gallon (GPG) water at 120° F. with various time points collected up to 4 hours, after a use solution was generated from the detergent composition. During the tests, the samples at different time points were collected and immediately frozen in an acetone/dry ice bath and stored in −80° C. before the activity of the enzyme was evaluated. For the use of such an assay, t=0 min was the reference point for 100% enzyme activity.
# as §1
# The relative enzyme activities in a use solution of the tested detergent compositions containing a different phosphonate at different concentrations over a period time are listed in Table 4A-Table 4E, Table 5A-Table 5E, and Table 6A-Table 6F.
# [2] = phosphonate 0.6 wt-%, use solution at 120º F., time 0 min
# [3] = phosphonate 0.6 wt-%, use solution at 120º F., time 5 min
# [4] = phosphonate 0.6 wt-%, use solution at 120º F., time 10 min
# [5] = phosphonate 0.6 wt-%, use solution at 120º F., time 20 min
# [6] = phosphonate 0.6 wt-%, use solution at 120º F., time 40 min
# [7] = phosphonate 0.6 wt-%, use solution at 120º F., time 60 min
# [8] = phosphonate 0.6 wt-%, use solution at 120º F., time 90 min
# [9] = phosphonate 0.6 wt-%, use solution at 120º F., time 120 min
# [10] = phosphonate 0.6 wt-%, use solution at 120º F., time 150 min
# [11] = phosphonate 0.6 wt-%, use solution at 120º F., time 180 min
# [12] = phosphonate 0.6 wt-%, use solution at 120º F., time 210 min
# [13] = phosphonate 0.6 wt-%, use solution at 120º F., time 240 min
# [14] = phosphonate at 0.1% elemental phosphorus, at 120º F. or at room temperature (as titled), time 0 min
# [15] = phosphonate at 0.1% elemental phosphorus, at 120º F. or at room temperature (as titled), time 5 min
# [16] = phosphonate at 0.1% elemental phosphorus, at 120º F. or at room temperature (as titled), time 10 min
# [17] = phosphonate at 0.1% elemental phosphorus, at 120º F. or at room temperature (as titled), time 20 min
# [18] = phosphonate at 0.1% elemental phosphorus, at 120º F. or at room temperature (as titled), time 40 min
# [19] = phosphonate at 0.1% elemental phosphorus, at 120º F. or at room temperature (as titled), time 60 min
# [20] = phosphonate at 0.1% elemental phosphorus, at 120º F. or at room temperature (as titled), time 90 min
# [21] = phosphonate at 0.1% elemental phosphorus, at 120º F. or at room temperature (as titled), time 120 min
# [22] = phosphonate at 0.1% elemental phosphorus, at 120º F. or at room temperature (as titled), time 150 min
# [23] = phosphonate at 0.1% elemental phosphorus, at 120º F. or at room temperature (as titled), time 180 min
# [24] = phosphonate at 0.1% elemental phosphorus, at 120º F. or at room temperature (as titled), time 210 min
# [25] = phosphonate at 0.1% elemental phosphorus, at 120º F. or at room temperature (as titled), time 240 min
smiles,measurement,setting,value
"NCP(=O)(O)O [AMPA, Aminomethyl phosphonic acid]",Relative Lipase Enzyme Activity,lipase; [2],100.00%
same,Relative Lipase Enzyme Activity,lipase; [3],80.17%
same,Relative Lipase Enzyme Activity,lipase; [4],64.48%
same,Relative Lipase Enzyme Activity,lipase; [5],49.45%
same,Relative Lipase Enzyme Activity,lipase; [6],37.77%
same,Relative Lipase Enzyme Activity,lipase; [7],26.82%
same,Relative Lipase Enzyme Activity,lipase; [8],19.59%
same,Relative Lipase Enzyme Activity,lipase; [9],15.84%
same,Relative Lipase Enzyme Activity,lipase; [10],15.01%
same,Relative Lipase Enzyme Activity,lipase; [11],13.23%
same,Relative Lipase Enzyme Activity,lipase; [12],12.05%
same,Relative Lipase Enzyme Activity,lipase; [13],11.16%
same,Relative Lipase Enzyme Activity,lipase; [14],100.00%
same,Relative Lipase Enzyme Activity,lipase; [15],79.03%
same,Relative Lipase Enzyme Activity,lipase; [16],77.51%
same,Relative Lipase Enzyme Activity,lipase; [17],62.55%
same,Relative Lipase Enzyme Activity,lipase; [18],53.26%
same,Relative Lipase Enzyme Activity,lipase; [19],44.19%
same,Relative Lipase Enzyme Activity,lipase; [20],33.99%
same,Relative Lipase Enzyme Activity,lipase; [21],28.67%
same,Relative Lipase Enzyme Activity,lipase; [22],23.85%
same,Relative Lipase Enzyme Activity,lipase; [23],16.98%
same,Relative Lipase Enzyme Activity,lipase; [24],17.74%
same,Relative Lipase Enzyme Activity,lipase; [25],16.10%
same,Stability (effects on enzyme activity),[1],Yes
"O=P(O)(O)CN(CP(=O)(O)O)CP(=O)(O)O [ATMP, Aminotri (methylene phosphonic acid)]",Relative Lipase Enzyme Activity in a Use Solution of the All Ash Detergent Composition,"lipase; all ash formula, phosphonate 0.3 wt-%, time 0 min",100.00%
same,Relative Lipase Enzyme Activity in a Use Solution of the All Ash Detergent Composition,"lipase; all ash formula, phosphonate 0.3 wt-%, time 5 min",61.64%
same,Relative Lipase Enzyme Activity in a Use Solution of the All Ash Detergent Composition,"lipase; all ash formula, phosphonate 0.3 wt-%, time 10 min",63.66%
same,Relative Lipase Enzyme Activity in a Use Solution of the All Ash Detergent Composition,"lipase; all ash formula, phosphonate 0.3 wt-%, time 20 min",54.08%
same,Relative Lipase Enzyme Activity in a Use Solution of the All Ash Detergent Composition,"lipase; all ash formula, phosphonate 0.3 wt-%, time 40 min",41.20%
same,Relative Lipase Enzyme Activity in a Use Solution of the All Ash Detergent Composition,"lipase; all ash formula, phosphonate 0.3 wt-%, time 60 min",36.19%
same,Relative Lipase Enzyme Activity in a Use Solution of the All Ash Detergent Composition,"lipase; all ash formula, phosphonate 0.3 wt-%, time 90 min",30.66%
same,Relative Lipase Enzyme Activity in a Use Solution of the All Ash Detergent Composition,"lipase; all ash formula, phosphonate 0.3 wt-%, time 120 min",19.17%
same,Relative Lipase Enzyme Activity in a Use Solution of the All Ash Detergent Composition,"lipase; all ash formula, phosphonate 0.3 wt-%, time 150 min",23.54%
same,Relative Lipase Enzyme Activity in a Use Solution of the All Ash Detergent Composition,"lipase; all ash formula, phosphonate 0.3 wt-%, time 180 min",14.43%
same,Relative Lipase Enzyme Activity in a Use Solution of the All Ash Detergent Composition,"lipase; all ash formula, phosphonate 0.3 wt-%, time 210 min",13.63%
same,Relative Lipase Enzyme Activity in a Use Solution of the All Ash Detergent Composition,"lipase; all ash formula, phosphonate 0.3 wt-%, time 240 min",12.97%
same,lipase stability in all ash formula,"lipase; all ash formula, versus same composition with PBTC or HEDP without amine(s), FIG. 6G",more stable
same,Relative Lipase Enzyme Activity,"lipase; phosphonate 0.3 wt-%, use solution at 120° F., time 0 min",100.00%
same,Relative Lipase Enzyme Activity,"lipase; phosphonate 0.3 wt-%, use solution at 120° F., time 5 min",79.77%
same,Relative Lipase Enzyme Activity,"lipase; phosphonate 0.3 wt-%, use solution at 120° F., time 10 min",71.10%
same,Relative Lipase Enzyme Activity,"lipase; phosphonate 0.3 wt-%, use solution at 120° F., time 20 min",62.47%
same,Relative Lipase Enzyme Activity,"lipase; phosphonate 0.3 wt-%, use solution at 120° F., time 40 min",39.28%
same,Relative Lipase Enzyme Activity,"lipase; phosphonate 0.3 wt-%, use solution at 120° F., time 60 min",34.01%
same,Relative Lipase Enzyme Activity,"lipase; phosphonate 0.3 wt-%, use solution at 120° F., time 90 min",26.70%
same,Relative Lipase Enzyme Activity,"lipase; phosphonate 0.3 wt-%, use solution at 120° F., time 120 min",22.13%
same,Relative Lipase Enzyme Activity,"lipase; phosphonate 0.3 wt-%, use solution at 120° F., time 150 min",19.07%
same,Relative Lipase Enzyme Activity,"lipase; phosphonate 0.3 wt-%, use solution at 120° F., time 180 min",17.48%
same,Relative Lipase Enzyme Activity,"lipase; phosphonate 0.3 wt-%, use solution at 120° F., time 210 min",15.49%
same,Relative Lipase Enzyme Activity,"lipase; phosphonate 0.3 wt-%, use solution at 120° F., time 240 min",14.68%
same,Relative Lipase Enzyme Activity,lipase; [2],100.00%
same,Relative Lipase Enzyme Activity,lipase; [3],93.26%
same,Relative Lipase Enzyme Activity,lipase; [4],87.80%
same,Relative Lipase Enzyme Activity,lipase; [5],81.36%
same,Relative Lipase Enzyme Activity,lipase; [6],60.03%
same,Relative Lipase Enzyme Activity,lipase; [7],56.12%
same,Relative Lipase Enzyme Activity,lipase; [8],49.58%
same,Relative Lipase Enzyme Activity,lipase; [9],42.20%
same,Relative Lipase Enzyme Activity,lipase; [10],37.91%
same,Relative Lipase Enzyme Activity,lipase; [11],33.77%
same,Relative Lipase Enzyme Activity,lipase; [12],32.19%
same,Relative Lipase Enzyme Activity,lipase; [13],29.80%
same,Relative Lipase Enzyme Activity,lipase; [14],100.00%
same,Relative Lipase Enzyme Activity,lipase; [15],82.14%
same,Relative Lipase Enzyme Activity,lipase; [16],78.45%
same,Relative Lipase Enzyme Activity,lipase; [17],64.87%
same,Relative Lipase Enzyme Activity,lipase; [18],45.84%
same,Relative Lipase Enzyme Activity,lipase; [19],37.66%
same,Relative Lipase Enzyme Activity,lipase; [20],30.16%
same,Relative Lipase Enzyme Activity,lipase; [21],25.91%
same,Relative Lipase Enzyme Activity,lipase; [22],21.51%
same,Relative Lipase Enzyme Activity,lipase; [23],15.43%
same,Relative Lipase Enzyme Activity,lipase; [24],17.94%
same,Relative Lipase Enzyme Activity,lipase; [25],15.64%
same,Stability (effects on enzyme activity),[1],Yes
